Measured values: paper PMC10485820 (European Journal of Pharmaceutical Sciences, 2023)
In brackets after ≈: the same amount, converted by molar mass.

Columns and labels:
in vitro = conditions: human
Procedure: (§3) Reactions were stopped by removing the plates from the incubator and mixing the incubation solution with 600 μL of ice-cold stop solution (acetonitrile) at the corresponding sampling time points.

OCT3 = molecular target: T1, OCT3 (Homo sapiens, UniProt O75751); assay: Preclinical transporter substrate assessment (unpublished); format: in vitro ADME
T1 sequence (O75751 1-556): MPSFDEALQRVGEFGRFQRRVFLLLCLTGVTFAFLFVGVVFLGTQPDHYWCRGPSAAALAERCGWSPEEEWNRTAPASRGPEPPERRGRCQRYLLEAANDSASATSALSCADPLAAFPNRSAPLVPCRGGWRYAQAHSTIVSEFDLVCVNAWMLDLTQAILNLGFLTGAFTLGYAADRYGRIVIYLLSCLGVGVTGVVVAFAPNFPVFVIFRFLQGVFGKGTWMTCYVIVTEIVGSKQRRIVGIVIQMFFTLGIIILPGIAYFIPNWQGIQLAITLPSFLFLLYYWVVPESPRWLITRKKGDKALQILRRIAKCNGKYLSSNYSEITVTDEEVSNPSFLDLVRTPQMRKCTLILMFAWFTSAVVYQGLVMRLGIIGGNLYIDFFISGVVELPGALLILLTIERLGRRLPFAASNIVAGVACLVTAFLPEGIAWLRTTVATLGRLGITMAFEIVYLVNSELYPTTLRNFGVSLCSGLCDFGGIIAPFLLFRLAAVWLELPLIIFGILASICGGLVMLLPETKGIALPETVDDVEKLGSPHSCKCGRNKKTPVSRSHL

[1] = Stability in human liver microsomes incubation system (unpublished); conditions: 1 μM, 0.5 mg/mL human liver microsomes
Procedure: as §3

[2] = Dissolution profile of HSK7653 tablets at pH 4.5 acetum; format: physicochemical
Text: (§1) The development of the DLM was complex.

OATP1B1 = molecular target: T2, OATP1B1 (Homo sapiens, UniProt Q9Y6L6); assay: Preclinical transporter substrate assessment (unpublished); format: in vitro ADME
T2 sequence (Q9Y6L6 1-691): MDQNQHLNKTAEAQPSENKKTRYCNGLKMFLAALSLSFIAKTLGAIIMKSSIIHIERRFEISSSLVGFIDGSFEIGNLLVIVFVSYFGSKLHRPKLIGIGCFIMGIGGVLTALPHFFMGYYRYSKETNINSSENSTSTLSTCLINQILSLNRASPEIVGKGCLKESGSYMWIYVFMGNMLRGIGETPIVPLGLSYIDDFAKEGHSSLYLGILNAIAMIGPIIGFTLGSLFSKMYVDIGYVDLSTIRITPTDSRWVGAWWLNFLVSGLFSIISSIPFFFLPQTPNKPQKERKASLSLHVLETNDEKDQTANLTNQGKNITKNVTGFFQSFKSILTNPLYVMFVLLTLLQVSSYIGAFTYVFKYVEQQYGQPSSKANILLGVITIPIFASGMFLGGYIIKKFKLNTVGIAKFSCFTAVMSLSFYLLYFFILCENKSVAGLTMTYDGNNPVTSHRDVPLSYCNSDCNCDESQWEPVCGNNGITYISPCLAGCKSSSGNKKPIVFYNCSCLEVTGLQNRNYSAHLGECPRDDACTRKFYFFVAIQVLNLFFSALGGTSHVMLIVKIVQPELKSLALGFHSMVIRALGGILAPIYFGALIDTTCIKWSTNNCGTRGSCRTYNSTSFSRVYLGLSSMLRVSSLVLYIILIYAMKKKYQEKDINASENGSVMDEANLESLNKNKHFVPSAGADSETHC

[3] = Equilibrium solubility of the HSK7653 API in various media; format: physicochemical; conditions: 37 °C, thermodynamic from solid
Procedure: Tests were performed by adding an excess amount of API to vials and stirring continuously at a speed of 200 rpm for 24 h at 37 °C. The API concentration was detected once per minute by an in situ fiber-optic ultraviolet (UV) dissolution real-time monitoring system (Pion Scientific Instruments, Billerica, MA, USA). All measurements were performed with n = 3.

[4] = HSK7653 PBPK model development and fitting (SimCYP); parameters: species or system human; conditions: Fitted (based on in vivo data)
Text: as §1
In this manuscript, we constructed the ADAM absorption model using the dissolution profile method and DLM method, respectively. The same disposition model was severally coupled with these two different absorption models to capture the absorption and disposition characteristics of HSK7653 in vivo. Here, we collected the CLint_hep and CLR from in vitro experimental results and in vivo clinical trial data without further optimization. […] Therefore, the disposition model of HSK7653 could accurately capture the elimination characteristics of HSK7653 in vivo. […] Furthermore, the models were also validated with PK data from a multiple dose clinical study (CTR20191549). […] Accordingly, the mechanism driven HSK7653 PBPK model can be used to simulate untested scenarios in specific populations.

[5] = Radioactivity recovery in feces after oral administration to rats (unpublished); format: in vivo
[6] = Biliary drainage study in rats (unpublished); format: in vivo
[7] = Renal clearance from in vivo clinical study; conditions: human, oral; Measured (in vivo); read-out: CLR (renal clearance) (converted)
Text: as §1

MATE2-K = MATE2-K (Homo sapiens, UniProt Q86VL8); assay: Preclinical transporter substrate assessment (unpublished); format: in vitro ADME
[8] = Apparent permeability in Caco-2 monolayer cell lines; format: in vitro ADME; conditions: human, Caco-2
Procedure: (§2) All experiments were performed in triplicate and analyzed by high-performance liquid chromatography with tandem mass spectrometry (HPLC-MS/MS). The apparent permeability coefficient (Papp) of each compound under the corresponding concentration was calculated according to Eq. (1) and listed as follows:(1) Papp=dQ/dt×1/A×C0 Where Papp was the apparent permeability coefficient (cm/s × 10^−6), dQ/dt (pmol/second) was the rate at which the compound appears in the receiver side, C0 (nM) was the initial concentration of the compound in the donor side, and A (cm^2) represented the surface area of the cell monolayer.

Caco-2 monolayer cells = assay: as above; format: in vitro ADME; conditions: from Papp A→B at 1, 5, 20 μM
Procedure: as §2

MATE2-K, sequence (Q86VL8 1-566 isoform Q86VL8-3, species assumed): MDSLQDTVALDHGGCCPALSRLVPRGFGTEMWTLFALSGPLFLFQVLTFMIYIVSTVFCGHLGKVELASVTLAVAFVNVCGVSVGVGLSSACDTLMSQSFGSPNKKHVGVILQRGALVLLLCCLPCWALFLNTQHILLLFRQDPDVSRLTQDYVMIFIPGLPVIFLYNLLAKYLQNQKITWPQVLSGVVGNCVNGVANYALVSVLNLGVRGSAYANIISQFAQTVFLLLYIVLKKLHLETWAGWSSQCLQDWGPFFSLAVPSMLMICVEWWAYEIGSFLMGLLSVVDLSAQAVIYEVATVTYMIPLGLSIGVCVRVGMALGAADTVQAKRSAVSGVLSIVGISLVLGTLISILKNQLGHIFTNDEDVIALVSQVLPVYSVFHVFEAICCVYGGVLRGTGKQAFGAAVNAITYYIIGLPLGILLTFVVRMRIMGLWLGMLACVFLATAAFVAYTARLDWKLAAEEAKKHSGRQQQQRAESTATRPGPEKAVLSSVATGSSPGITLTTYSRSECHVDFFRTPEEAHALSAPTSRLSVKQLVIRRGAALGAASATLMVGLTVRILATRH

half-life at 0.05 μM (in vitro; primary human plated hepatocytes): 12.2 days | hepatocyte CLint at 0.05 μM (in vitro; primary plated hepatocytes (cryopreserved, 10 donors mixed)): 0.056 µL/min/1e6 cells | Transporter substrate assessment (OCT3): not a common transport substrate | Metabolic stability in human liver microsomes [1]: very stable | Fasted Dissolution (%) ([2]; time 0.167 h): 70.52% | Fasted Dissolution (%) ([2]; time 0.333 h): 95.97% | Fasted Dissolution (%) ([2]; time 0.50 h): 100.0% | Transporter substrate assessment (OATP1B1): not a common transport substrate | solubility at 24 h ([3]; fassgf or other biorelevant, FaSSGF medium): ~5310 µg/mL (≈ 11.4 mM) | solubility at 24 h ([3]; FaSSIF medium): ~342 µg/mL (≈ 0.733 mM) | solubility thermodynamic at 24 h ([3]; pH 1.0 hydrochloric acid (HCl) solution, simulated gastric fluid, pH 1.0 HCl solution): 11600 µg/mL (≈ 24.8 mM) | solubility thermodynamic at 24 h ([3]; pH 8.0 phosphate buffer saline (PBS), aqueous buffer, pH 8.0 PBS): 120 µg/mL (≈ 0.257 mM) | Biliary CLint (CLint_bile) [4]: 0.025 μL/min/10^6 | Radioactivity recovered in feces [5]: approximately 62.1% | Radioactivity recovered in biliary drainage study [6]: approximately 16.6% | CL renal [7]: 6.22 mL/min | Transporter substrate assessment (MATE2-K): not a common transport substrate | Papp A→B at 2 h, 1 μM ([8]; 1 μM, 2 h, 37 °C): 25.3 ×10⁻⁶ cm/s | Papp A→B at 2 h, 5 μM ([8]; 5 μM, 2 h, 37 °C): 29.3 ×10⁻⁶ cm/s | Papp A→B at 2 h, 20 μM ([8]; 20 μM, 2 h, 37 °C): 40.3 ×10⁻⁶ cm/s | Papp at 2 h ([8]; average value of Papp at different incubation concentrations, apical pH: basolateral pH 7.4: 7.4, read-out: Caco-2 permeability, model input): 31.6 ×10⁻⁶ cm/s | Permeability classification (Caco-2 monolayer cells): high-permeability compound
Compound: CS(=O)(=O)n1cc2c(n1)CN([C@@H]1C[C@H](N)[C@@H](c3cc(F)ccc3F)O[C@@H]1C(F)(F)F)C2 [HSK7653]
